Reference: patent publication US10392368B2, “Pyrazolo and triazolo bicyclic compounds as JAK kinase inhibitors” (THERAVANCE BIOPHARMA R&D IP, LLC, priority 2017, dated 2019)

Experiments:
JAK3 = target: T1, JAK3 (Homo sapiens, UniProt P52333); test: Biochemical JAK3 kinase assay (LanthaScreen); design: GST; purchased Life Technologies; details: for Ki: read-out: JAK 3 (pKi) (converted); for JAK3 (pKi)-JAK1 (pKi): selectivity: difference of pKi JAK3 and pKi JAK1
T1 sequence (P52333 1-1124): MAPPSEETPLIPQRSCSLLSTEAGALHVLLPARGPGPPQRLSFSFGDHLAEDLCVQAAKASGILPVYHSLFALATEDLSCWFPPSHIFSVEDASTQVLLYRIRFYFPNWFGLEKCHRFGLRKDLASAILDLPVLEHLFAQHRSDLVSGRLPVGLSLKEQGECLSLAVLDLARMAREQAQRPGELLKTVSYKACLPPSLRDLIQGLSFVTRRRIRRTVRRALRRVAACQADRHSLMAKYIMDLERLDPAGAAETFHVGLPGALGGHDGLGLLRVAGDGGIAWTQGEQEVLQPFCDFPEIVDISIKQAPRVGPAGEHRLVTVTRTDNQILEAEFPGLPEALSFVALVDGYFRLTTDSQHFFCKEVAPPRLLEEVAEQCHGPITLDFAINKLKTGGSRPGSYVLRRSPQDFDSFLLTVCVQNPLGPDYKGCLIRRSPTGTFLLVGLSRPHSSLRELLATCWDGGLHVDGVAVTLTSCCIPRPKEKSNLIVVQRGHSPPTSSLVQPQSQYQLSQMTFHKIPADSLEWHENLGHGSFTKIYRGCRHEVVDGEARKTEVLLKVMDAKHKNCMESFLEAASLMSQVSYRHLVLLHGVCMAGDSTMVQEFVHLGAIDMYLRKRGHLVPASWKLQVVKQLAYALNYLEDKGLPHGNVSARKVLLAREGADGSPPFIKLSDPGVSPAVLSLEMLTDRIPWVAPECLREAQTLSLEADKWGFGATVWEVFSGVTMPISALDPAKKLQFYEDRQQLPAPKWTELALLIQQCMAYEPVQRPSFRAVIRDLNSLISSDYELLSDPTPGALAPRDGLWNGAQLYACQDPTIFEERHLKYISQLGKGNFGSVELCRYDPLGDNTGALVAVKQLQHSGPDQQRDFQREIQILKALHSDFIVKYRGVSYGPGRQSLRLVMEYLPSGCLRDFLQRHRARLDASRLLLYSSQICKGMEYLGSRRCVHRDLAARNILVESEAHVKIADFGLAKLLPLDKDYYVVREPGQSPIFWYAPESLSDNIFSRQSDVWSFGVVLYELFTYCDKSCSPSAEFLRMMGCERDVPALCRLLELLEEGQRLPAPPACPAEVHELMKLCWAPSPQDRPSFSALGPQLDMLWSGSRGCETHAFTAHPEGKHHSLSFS
In short: (§1)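 GST-JAK + GFP-STAT1 peptide + cpd, 1 h preinc RT; ATP start, 1% DMSO, 1 h RT; stop 10 mM EDTA + 2 nM Tb-anti-pSTAT1; 1 h; TR-FRET 520/495. % inhib vs DMSO/background → IC50 (4-PL) → pKi (Cheng-Prusoff).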

JAK1 = target: T2, JAK1 (Homo sapiens, UniProt P23458); test: Biochemical JAK1 kinase assay (LanthaScreen); details: for Ki: read-out: JAK 1 (pKi) (converted)
T2 construct: GST; purchased Life Technologies
In short: as §1

Tyk2 = target: T3, Tyk2 (Homo sapiens, UniProt P29597); test: Biochemical Tyk2 kinase assay (LanthaScreen); details: for Ki: read-out: Tyk 2 (pKi) (converted)
T3 construct: GST; purchased Life Technologies
In short: as §1

JAK2 = target: T4, JAK2 (Homo sapiens, UniProt O60674); test: Biochemical JAK2 kinase assay (LanthaScreen); details: for Ki: read-out: JAK 2 (pKi) (converted)
T4 construct: GST; purchased Life Technologies
In short: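 GST-tagged recombinant JAK2 pre-incubated 1 h at ambient temperature with compound and GFP-STAT1 peptide in HEPES pH 7.5/MgCl2 buffer, then ATP added for a 1 h reaction with 1% DMSO. TR-FRET read after EDTA and Tb-anti-pSTAT1 (pTyr701) addition; IC50 from 4-parameter fit, converted to pKi by Cheng-Prusoff.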

[1] = system: IL-2 stimulated pSTAT5 in Tall-1 T cells; test: Cellular JAK3 potency assay: inhibition of IL-2 stimulated pSTAT5 in Tall-1 T cells; format: cell-based, human; details: for IC50: Homo sapiens, TALL-1, IL-2 stimulated pSTAT5 in Tall-1 T cells, read-out: Tall-1 (pIC50) (converted); for Tall-1 (pIC50): IL-2 stimulated pSTAT5 in Tall-1 T cells
In short: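 Tall-1 human T cells (45,000/well) in phenol red-free DMEM with 10% FBS were preincubated with compound 1 h at 37 °C, then stimulated with IL-2 (final 300 ng/ml) for 30 min. Lysate pSTAT5 read by AlphaLisa; IC50 from inhibition curves, reported as pIC50 (mean±SD).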

T2 sequence (P23458 whole entry): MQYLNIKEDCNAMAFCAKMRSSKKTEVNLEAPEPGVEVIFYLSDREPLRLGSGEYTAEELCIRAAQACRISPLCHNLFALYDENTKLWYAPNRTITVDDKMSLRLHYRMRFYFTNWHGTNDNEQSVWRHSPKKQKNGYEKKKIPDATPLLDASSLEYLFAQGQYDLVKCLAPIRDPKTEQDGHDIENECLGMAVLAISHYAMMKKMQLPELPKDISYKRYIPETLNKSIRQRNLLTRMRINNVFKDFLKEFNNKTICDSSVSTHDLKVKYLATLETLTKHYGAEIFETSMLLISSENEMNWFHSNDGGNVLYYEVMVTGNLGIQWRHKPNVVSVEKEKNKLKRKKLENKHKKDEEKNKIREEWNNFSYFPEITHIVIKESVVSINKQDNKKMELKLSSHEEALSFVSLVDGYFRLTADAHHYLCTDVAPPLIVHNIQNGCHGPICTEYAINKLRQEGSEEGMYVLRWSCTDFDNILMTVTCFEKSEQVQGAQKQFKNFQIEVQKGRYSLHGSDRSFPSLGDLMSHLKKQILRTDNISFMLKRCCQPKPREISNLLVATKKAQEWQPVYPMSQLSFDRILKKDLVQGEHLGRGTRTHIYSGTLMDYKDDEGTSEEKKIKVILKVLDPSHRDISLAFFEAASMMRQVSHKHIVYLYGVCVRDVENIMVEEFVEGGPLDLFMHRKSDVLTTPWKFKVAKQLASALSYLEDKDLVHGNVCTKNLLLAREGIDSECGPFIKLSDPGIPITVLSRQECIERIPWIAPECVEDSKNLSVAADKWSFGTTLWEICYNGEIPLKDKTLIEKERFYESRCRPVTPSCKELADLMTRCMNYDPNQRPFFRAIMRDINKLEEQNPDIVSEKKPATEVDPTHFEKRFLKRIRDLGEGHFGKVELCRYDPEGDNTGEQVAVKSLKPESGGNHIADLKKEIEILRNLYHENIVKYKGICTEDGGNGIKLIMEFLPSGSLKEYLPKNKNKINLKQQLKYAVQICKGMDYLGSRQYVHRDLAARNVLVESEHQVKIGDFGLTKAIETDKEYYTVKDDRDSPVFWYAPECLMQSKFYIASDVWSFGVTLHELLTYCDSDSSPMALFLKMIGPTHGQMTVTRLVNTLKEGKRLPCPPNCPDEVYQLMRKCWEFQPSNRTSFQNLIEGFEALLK
T4 sequence (O60674 whole entry): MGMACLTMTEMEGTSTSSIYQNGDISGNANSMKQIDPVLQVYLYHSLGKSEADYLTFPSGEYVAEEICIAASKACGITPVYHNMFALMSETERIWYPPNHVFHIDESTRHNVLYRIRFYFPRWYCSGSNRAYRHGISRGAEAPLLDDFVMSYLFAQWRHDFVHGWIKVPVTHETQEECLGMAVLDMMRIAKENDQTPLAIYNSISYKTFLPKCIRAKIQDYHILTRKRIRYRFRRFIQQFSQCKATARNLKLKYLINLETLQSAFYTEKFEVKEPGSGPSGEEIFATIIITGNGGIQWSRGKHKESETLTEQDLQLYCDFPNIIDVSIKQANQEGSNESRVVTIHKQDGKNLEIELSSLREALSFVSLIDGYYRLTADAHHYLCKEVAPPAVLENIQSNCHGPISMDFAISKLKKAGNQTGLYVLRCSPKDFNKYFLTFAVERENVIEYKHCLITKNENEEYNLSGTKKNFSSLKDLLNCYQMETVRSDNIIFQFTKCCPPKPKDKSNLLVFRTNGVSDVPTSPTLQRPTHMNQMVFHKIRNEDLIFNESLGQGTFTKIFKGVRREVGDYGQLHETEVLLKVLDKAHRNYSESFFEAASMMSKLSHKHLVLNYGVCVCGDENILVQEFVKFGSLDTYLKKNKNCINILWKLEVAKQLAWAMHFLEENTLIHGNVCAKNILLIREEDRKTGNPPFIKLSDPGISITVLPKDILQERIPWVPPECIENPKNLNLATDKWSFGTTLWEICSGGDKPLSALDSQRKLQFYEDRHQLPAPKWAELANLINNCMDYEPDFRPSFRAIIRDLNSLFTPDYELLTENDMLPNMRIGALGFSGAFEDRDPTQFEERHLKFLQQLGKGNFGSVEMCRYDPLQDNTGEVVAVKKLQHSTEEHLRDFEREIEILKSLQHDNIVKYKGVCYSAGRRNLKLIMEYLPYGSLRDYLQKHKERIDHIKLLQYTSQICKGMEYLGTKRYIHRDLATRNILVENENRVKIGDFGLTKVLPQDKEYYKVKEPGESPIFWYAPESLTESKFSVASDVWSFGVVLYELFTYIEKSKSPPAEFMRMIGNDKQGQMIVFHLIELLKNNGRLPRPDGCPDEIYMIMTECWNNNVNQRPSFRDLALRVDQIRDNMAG
T3 sequence (P29597 whole entry): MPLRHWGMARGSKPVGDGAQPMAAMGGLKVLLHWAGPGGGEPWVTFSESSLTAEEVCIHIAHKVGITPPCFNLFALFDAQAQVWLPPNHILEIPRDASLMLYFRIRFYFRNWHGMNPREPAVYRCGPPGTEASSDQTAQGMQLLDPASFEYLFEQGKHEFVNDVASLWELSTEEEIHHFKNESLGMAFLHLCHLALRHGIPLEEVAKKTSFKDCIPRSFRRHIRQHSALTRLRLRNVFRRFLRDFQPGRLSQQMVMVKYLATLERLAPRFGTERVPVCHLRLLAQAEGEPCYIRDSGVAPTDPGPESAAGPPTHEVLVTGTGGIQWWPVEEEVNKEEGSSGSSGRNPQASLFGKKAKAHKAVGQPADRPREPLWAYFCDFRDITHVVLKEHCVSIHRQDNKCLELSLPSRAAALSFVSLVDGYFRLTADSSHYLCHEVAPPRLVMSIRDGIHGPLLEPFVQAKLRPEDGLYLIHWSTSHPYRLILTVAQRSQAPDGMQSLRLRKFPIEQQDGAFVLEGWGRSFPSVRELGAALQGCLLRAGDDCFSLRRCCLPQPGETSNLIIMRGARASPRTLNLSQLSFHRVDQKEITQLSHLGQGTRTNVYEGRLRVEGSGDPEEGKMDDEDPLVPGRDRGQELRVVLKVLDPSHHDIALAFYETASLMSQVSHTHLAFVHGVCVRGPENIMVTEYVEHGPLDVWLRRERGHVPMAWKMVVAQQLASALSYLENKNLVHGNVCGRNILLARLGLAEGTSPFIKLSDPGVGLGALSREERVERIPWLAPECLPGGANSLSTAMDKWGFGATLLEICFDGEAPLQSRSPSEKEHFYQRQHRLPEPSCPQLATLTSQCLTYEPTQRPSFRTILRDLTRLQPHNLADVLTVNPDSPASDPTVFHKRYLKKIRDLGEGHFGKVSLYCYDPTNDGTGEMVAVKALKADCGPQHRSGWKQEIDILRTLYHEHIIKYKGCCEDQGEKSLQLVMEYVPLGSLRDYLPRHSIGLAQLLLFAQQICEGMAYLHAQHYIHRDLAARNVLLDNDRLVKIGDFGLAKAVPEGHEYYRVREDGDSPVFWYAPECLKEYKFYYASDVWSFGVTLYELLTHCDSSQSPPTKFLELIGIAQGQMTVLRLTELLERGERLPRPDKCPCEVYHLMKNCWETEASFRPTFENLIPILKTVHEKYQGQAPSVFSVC

SMILES | Ki (JAK3) | JAK3 (pKi)-JAK1 (pKi) (JAK3) | Ki (JAK1) | Ki (Tyk2) | Ki (JAK2) | IC50 [1] | JAK 3 (pKi) (JAK3) | JAK 1 (pKi) (JAK1) | Tyk 2 (pKi) (Tyk2) | JAK 2 (pKi) (JAK2) | Tall-1 (pIC50) [1]
COC(CN(C)C/C=C/C(=O)N1CC(COc2cc(-c3ccc(O)cc3)cc3[nH]ncc23)C1)OC [Compound 3-121] | 0.0001 to 0.001 µM | A (a value of 3 or above) | > 0.1 µM | > 0.1 µM | 0.01 to 0.1 µM | 0.0316 to 0.2 µM |  |  |  |  | 
CN(C)C/C=C\C(=O)N1CC(COc2cc(-c3ccc(O)c(Cl)c3)cc3[nH]ncc23)C1 [Compound 3-122] | < 0.0001 µM | A (a value of 3 or above) | > 0.1 µM | > 0.1 µM | 0.01 to 0.1 µM | < 0.0316 µM |  |  |  |  | 
CSC1CCN(C/C=C/C(=O)N2CC(COc3cc(-c4ccc(O)cc4)cc4[nH]ncc34)C2)C1 (stereo not drawn) [Compound 3-125] | 0.0001 to 0.001 µM | A (a value of 3 or above) | > 0.1 µM | > 0.1 µM | > 0.1 µM | 0.0316 to 0.2 µM |  |  |  |  | 
CCSCCNC/C=C/C(=O)N1CC(COc2cc(-c3ccc(O)cc3)cc3[nH]ncc23)C1 [Compound 3-126] | < 0.0001 µM | A (a value of 3 or above) | > 0.1 µM | > 0.1 µM | 0.01 to 0.1 µM | 0.2 to 1 µM |  |  |  |  | 
COC1CCN(C/C=C/C(=O)N2CC(COc3cc(-c4ccc(O)cc4)cc4[nH]ncc34)C2)CC1 [Compound 3-127] | < 0.0001 µM | A (a value of 3 or above) | > 0.1 µM | > 0.1 µM | 0.01 to 0.1 µM | 0.0316 to 0.2 µM |  |  |  |  | 
COC1CCCN(C/C=C/C(=O)N2CC(COc3cc(-c4ccc(O)cc4)cc4[nH]ncc34)C2)C1 (stereo not drawn) [Compound 3-128] | < 0.0001 µM | A (a value of 3 or above) | > 0.1 µM | > 0.1 µM | 0.0001 to 0.001 µM | 0.0316 to 0.2 µM |  |  |  |  | 
CSC1CCN(C/C=C/C(=O)N2CC(COc3cc(-c4ccc(O)cc4)cc4[nH]ncc34)C2)CC1 [Compound 3-131] | 0.0001 to 0.001 µM | B (a value of 2.3 to 3) | > 0.1 µM | > 0.1 µM | 0.0001 to 0.001 µM | < 0.0316 µM |  |  |  |  | 
COC1CN(C/C=C/C(=O)N2CC(COc3cc(-c4ccc(O)cc4)cc4[nH]ncc34)C2)C1 [Compound 3-132] | 0.0001 to 0.001 µM | A (a value of 3 or above) | > 0.1 µM | > 0.1 µM | > 0.1 µM | 0.2 to 1 µM |  |  |  |  | 
COC1(C)CN(C/C=C/C(=O)N2CC(COc3cc(-c4ccc(O)cc4)cc4[nH]ncc34)C2)C1 [Compound 3-133] | < 0.0001 µM | A (a value of 3 or above) | > 0.1 µM | > 0.1 µM | 0.01 to 0.1 µM | 0.2 to 1 µM |  |  |  |  | 
C=CC(=O)N1CC(CN(C)c2cc(-c3ccc(O)cc3)cc3[nH]ncc23)C1 [Compound 4-1] |  | A (a value of 3 or above) |  |  |  |  | B (a pKi value between 9 and 10 (Ki between 1 nM and 0.1 nM)) | E (a pKi value of 7 or below (Ki of 100 nM or above)) | E (a pKi value of 7 or below (Ki of 100 nM or above)) | E (a pKi value of 7 or below (Ki of 100 nM or above)) | B (a pIC50 value between 6.7 (included) and 7.5 (IC50 between 200 nM and 32 nM))
C=CC(=O)N1CC(C)(CNc2cc(-c3ccc(O)cc3)cc3[nH]ncc23)C1 [Compound 4-2] |  | B (a value of 2.3 to 3) |  |  |  |  | B (a pKi value between 9 and 10 (Ki between 1 nM and 0.1 nM)) | D (a pKi value between 7 and 8 (Ki between 100 nM and 10 nM)) | E (a pKi value of 7 or below (Ki of 100 nM or above)) | D (a pKi value between 7 and 8 (Ki between 100 nM and 10 nM)) | B (a pIC50 value between 6.7 (included) and 7.5 (IC50 between 200 nM and 32 nM))
CN(C)C/C=C/C(=O)N1CC(CN(C)c2cc(-c3ccc(O)c(Cl)c3)cc3[nH]ncc23)C1 [Compound 4-4] |  | A (a value of 3 or above) |  |  |  |  | A (a pKi value≥10 (Ki≤0.1 nM)) | E (a pKi value of 7 or below (Ki of 100 nM or above)) | E (a pKi value of 7 or below (Ki of 100 nM or above)) | E (a pKi value of 7 or below (Ki of 100 nM or above)) | B (a pIC50 value between 6.7 (included) and 7.5 (IC50 between 200 nM and 32 nM))
C=CC(=O)N1CC(CN(C)c2cc(-c3ccc(O)c(Cl)c3)cc3[nH]ncc23)C1 [Compound 4-5] |  | A (a value of 3 or above) |  |  |  |  | B (a pKi value between 9 and 10 (Ki between 1 nM and 0.1 nM)) | E (a pKi value of 7 or below (Ki of 100 nM or above)) | E (a pKi value of 7 or below (Ki of 100 nM or above)) | E (a pKi value of 7 or below (Ki of 100 nM or above)) | A (a pIC50 value≥7.5 (IC50≤32 nM))
CN(C)C/C=C/C(=O)N1CC(CN(C)c2cc(-c3ccc(O)c(F)c3)cc3[nH]ncc23)C1 [Compound 4-6] |  | A (a value of 3 or above) |  |  |  |  | B (a pKi value between 9 and 10 (Ki between 1 nM and 0.1 nM)) | E (a pKi value of 7 or below (Ki of 100 nM or above)) | E (a pKi value of 7 or below (Ki of 100 nM or above)) | E (a pKi value of 7 or below (Ki of 100 nM or above)) | B (a pIC50 value between 6.7 (included) and 7.5 (IC50 between 200 nM and 32 nM))
C=CC(=O)N1CC(CN(C)c2cc(-c3ccc(O)c(F)c3)cc3[nH]ncc23)C1 [Compound 4-7] |  | B (a value of 2.3 to 3) |  |  |  |  | C (a pKi value between 8 and 9 (Ki between 10 nM and 1 nM)) | E (a pKi value of 7 or below (Ki of 100 nM or above)) | E (a pKi value of 7 or below (Ki of 100 nM or above)) | E (a pKi value of 7 or below (Ki of 100 nM or above)) | B (a pIC50 value between 6.7 (included) and 7.5 (IC50 between 200 nM and 32 nM))
C=CC(=O)N1CC(Oc2cc(-c3ccc(O)cc3)cc3[nH]ncc23)C1 [Compound 5-2] |  | A (a value of 3 or above) |  |  |  |  | B (a pKi value between 9 and 10 (Ki between 1 nM and 0.1 nM)) | E (a pKi value of 7 or below (Ki of 100 nM or above)) | E (a pKi value of 7 or below (Ki of 100 nM or above)) | E (a pKi value of 7 or below (Ki of 100 nM or above)) | B (a pIC50 value between 6.7 (included) and 7.5 (IC50 between 200 nM and 32 nM))
CN(C)C/C=C/C(=O)N1CC(Oc2cc(-c3ccc(O)c(Cl)c3)cc3[nH]ncc23)C1 [Compound 5-3] |  | A (a value of 3 or above) |  |  |  |  | A (a pKi value≥10 (Ki≤0.1 nM)) | E (a pKi value of 7 or below (Ki of 100 nM or above)) | E (a pKi value of 7 or below (Ki of 100 nM or above)) | E (a pKi value of 7 or below (Ki of 100 nM or above)) | A (a pIC50 value≥7.5 (IC50≤32 nM))
